Active and inactive are the calls of the source. The calls are words filed in the database; no cut-off is given here.
Tests used:
[1] = Metabolic stability in rat liver microsome assessed as parent compound remaining measured at 30 mins in presence of NADPH by LC-MS/MS analysis; assay type: ADME; settings: liver microsomes, read-out: Stability
[2] = target: T1, Protein cereblon/Signal transducer and transcription activator 6 (Mus musculus) (UniProt P52633+Q8C7D2); assay: In vivo PROTAC activity at STAT6/CRBN in BALB/c mouse assessed as reduction in STAT6 level in lung at 200 mg/kg, ip measured at 6 hrs by Western blot analysis; assay type: functional, organism-based; set-up: scale not given: the % may be the effect or the level left
T1 sequence (P52633 whole entry, looked up): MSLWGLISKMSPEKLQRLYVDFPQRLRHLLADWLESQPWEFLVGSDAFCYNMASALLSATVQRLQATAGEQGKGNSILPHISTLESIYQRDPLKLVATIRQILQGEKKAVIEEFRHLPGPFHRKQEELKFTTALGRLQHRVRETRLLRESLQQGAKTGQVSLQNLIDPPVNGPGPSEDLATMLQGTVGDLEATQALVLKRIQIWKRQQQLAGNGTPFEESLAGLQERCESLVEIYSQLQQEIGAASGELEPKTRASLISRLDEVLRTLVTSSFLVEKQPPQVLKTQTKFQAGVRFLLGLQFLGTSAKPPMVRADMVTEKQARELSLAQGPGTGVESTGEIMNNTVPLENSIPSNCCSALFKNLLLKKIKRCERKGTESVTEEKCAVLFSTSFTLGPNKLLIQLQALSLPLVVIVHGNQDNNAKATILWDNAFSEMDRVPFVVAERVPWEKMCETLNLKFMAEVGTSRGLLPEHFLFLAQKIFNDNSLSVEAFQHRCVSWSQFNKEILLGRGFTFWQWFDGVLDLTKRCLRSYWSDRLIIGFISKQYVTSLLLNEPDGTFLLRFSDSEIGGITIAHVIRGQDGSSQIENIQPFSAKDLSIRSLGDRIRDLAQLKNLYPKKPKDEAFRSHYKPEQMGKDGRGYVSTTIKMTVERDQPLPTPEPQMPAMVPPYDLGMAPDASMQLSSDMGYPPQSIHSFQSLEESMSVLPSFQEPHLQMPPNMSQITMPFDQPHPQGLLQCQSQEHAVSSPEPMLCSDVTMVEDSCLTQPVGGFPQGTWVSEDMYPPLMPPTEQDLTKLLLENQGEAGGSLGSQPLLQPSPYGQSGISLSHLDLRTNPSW
T1 sequence (Q8C7D2 whole entry, looked up): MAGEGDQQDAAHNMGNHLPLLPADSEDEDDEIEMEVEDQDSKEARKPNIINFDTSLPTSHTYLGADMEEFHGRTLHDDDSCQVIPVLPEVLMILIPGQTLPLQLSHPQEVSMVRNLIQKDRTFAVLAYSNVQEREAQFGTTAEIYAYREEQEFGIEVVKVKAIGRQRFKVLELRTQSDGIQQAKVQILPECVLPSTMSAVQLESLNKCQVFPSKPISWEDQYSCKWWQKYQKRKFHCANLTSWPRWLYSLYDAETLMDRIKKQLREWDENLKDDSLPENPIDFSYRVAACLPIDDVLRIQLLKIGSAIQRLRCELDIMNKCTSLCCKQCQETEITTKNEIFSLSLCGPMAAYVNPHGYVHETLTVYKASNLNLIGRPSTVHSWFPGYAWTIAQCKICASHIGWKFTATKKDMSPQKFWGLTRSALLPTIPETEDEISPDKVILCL

[3] = target: T1, Protein cereblon/Signal transducer and transcription activator 6 (Mus musculus); assay: In vivo PROTAC activity at STAT6/CRBN in BALB/c mouse assessed as reduction in STAT6 level in lung at 200 mg/kg, ip measured at 2 hrs by Western blot analysis; assay type: functional, organism-based; set-up: scale not given: the % may be the effect or the level left
[4] = target: Protein cereblon/Signal transducer and activator of transcription 1-alpha/beta (Homo sapiens) (UniProt P42224+Q96SW2); assay: PROTAC activity at STAT1/CRBN in human MV4-11 cells assessed as reduction in STAT1 level at upto 10 uM incubated for 12 hrs by Western blot analysis; assay type: cell-based
[5] = target: Cereblon/Ikaros (Homo sapiens) (UniProt Q96SW2+Q13422); assay: PROTAC activity at CRBN/IKZF1 in human Jurkat cells assessed as degradation of IKZF1 protein at 0.01 to 10 uM incubated for 20 hrs by Western blotting analysis; assay type: cell-based; settings: dose 0.01-10 µM
[6] = Stability in human plasma assessed as parent compound remaining measured at 30 mins by LC-MS/MS analysis; assay type: ADME, cell-free; settings: read-out: Stability
[7] = Metabolic stability in mouse liver microsome assessed as parent compound remaining measured at 15 mins in presence of NADPH by LC-MS/MS analysis; assay type: ADME; settings: liver microsomes, read-out: Stability
[8] = Stability in dog plasma assessed as parent compound remaining measured at 30 mins by LC-MS/MS analysis; assay type: ADME, cell-free, Canis lupus familiaris; settings: read-out: Stability
[9] = target: Protein cereblon/Signal transducer and activator of transcription 3 (Homo sapiens) (UniProt P40763+Q96SW2); assay: PROTAC activity at STAT3/CRBN in human PBMC cells assessed as reduction in STAT3 level at 10 uM incubated for 18 hrs by Western blot analysis relative to control; assay type: cell-based
[10] = Metabolic stability in dog liver microsome assessed as parent compound remaining measured at 15 mins in presence of NADPH by LC-MS/MS analysis; assay type: ADME, Canis lupus familiaris; settings: liver microsomes, read-out: Stability
[11] = target: Protein cereblon/Zinc finger protein Aiolos (Homo sapiens) (UniProt Q96SW2+Q9UKT9); assay: PROTAC activity at CRBN/IKZF3 in human Jurkat cells assessed as degradation of IKZF3 protein at 0.01 to 10 uM incubated for 20 hrs by Western blotting analysis; assay type: cell-based; settings: dose 0.01-10 µM
[12] = Stability in rat plasma assessed as parent compound remaining measured at 60 mins by LC-MS/MS analysis; assay type: ADME, cell-free; settings: read-out: Stability
[13] = Stability in human plasma assessed as parent compound remaining measured at 5 mins by LC-MS/MS analysis; assay type: ADME, cell-free; settings: read-out: Stability
[14] = Stability in monkey plasma assessed as parent compound remaining measured at 120 mins by LC-MS/MS analysis; assay type: ADME, cell-free, Macaca mulatta; settings: rhesus monkey, read-out: Stability
[15] = Stability in monkey plasma assessed as parent compound remaining measured at 5 mins by LC-MS/MS analysis; assay type: ADME, cell-free, Macaca mulatta; settings: rhesus monkey, read-out: Stability
[16] = Stability in monkey plasma assessed as parent compound remaining measured at 60 mins by LC-MS/MS analysis; assay type: ADME, cell-free, Macaca mulatta; settings: rhesus monkey, read-out: Stability
[17] = Stability in rat plasma assessed as parent compound remaining measured at 15 mins by LC-MS/MS analysis; assay type: ADME, cell-free; settings: read-out: Stability
[18] = target: T2, Protein cereblon/Signal transducer and activator of transcription 6 (Homo sapiens, UniProt P42226+Q96SW2); assay: PROTAC activity at STAT6/CRBN in human PBMC cells assessed as reduction in STAT6 level at 5 uM incubated for 18 hrs by Western blot analysis relative to control; assay type: cell-based; set-up: scale not given: the % may be the effect or the level left
Target sequence in this assay (P42226 2-847 limits assumed): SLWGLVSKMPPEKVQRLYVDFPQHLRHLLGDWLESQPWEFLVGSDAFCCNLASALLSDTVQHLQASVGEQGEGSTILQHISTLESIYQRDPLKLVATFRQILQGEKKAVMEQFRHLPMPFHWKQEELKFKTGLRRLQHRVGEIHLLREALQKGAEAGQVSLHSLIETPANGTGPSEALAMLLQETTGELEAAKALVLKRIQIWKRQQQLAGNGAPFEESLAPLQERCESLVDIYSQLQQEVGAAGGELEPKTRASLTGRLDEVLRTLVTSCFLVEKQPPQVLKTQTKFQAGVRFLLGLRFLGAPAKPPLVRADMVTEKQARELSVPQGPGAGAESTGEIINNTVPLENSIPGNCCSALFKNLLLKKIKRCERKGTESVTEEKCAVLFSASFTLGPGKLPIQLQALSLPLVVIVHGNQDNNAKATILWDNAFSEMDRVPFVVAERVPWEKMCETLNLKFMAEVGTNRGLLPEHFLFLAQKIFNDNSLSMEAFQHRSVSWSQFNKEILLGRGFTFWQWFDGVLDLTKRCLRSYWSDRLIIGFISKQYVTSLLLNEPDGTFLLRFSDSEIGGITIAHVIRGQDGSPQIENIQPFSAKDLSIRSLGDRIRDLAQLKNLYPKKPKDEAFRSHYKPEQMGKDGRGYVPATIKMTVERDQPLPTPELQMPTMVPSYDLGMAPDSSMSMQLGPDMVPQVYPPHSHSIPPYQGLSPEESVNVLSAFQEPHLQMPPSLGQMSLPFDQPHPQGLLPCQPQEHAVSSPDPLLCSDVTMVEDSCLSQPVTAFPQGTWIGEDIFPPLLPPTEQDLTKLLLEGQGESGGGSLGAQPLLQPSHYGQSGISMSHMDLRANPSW
Target sequence in this assay (Q96SW2 whole entry partner): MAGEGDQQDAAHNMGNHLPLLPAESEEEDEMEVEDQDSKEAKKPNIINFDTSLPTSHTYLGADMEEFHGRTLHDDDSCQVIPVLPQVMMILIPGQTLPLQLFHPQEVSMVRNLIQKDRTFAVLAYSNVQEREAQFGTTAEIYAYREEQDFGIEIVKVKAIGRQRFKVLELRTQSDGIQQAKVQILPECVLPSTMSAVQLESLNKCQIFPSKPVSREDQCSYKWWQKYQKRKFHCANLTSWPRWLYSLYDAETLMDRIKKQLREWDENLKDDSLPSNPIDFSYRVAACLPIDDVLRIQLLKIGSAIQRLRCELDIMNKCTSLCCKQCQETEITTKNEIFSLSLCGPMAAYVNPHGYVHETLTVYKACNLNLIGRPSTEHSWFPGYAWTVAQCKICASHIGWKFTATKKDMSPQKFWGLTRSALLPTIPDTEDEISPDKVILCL

[19] = Stability in rat plasma assessed as half life measured upto 60 mins by LC-MS/MS analysis; assay type: ADME, cell-free
[20] = Metabolic stability in mouse liver microsome assessed as half life measured upto 60 mins in presence of NADPH by LC-MS/MS analysis; assay type: ADME; settings: liver microsomes
[21] = target: T2, Protein cereblon/Signal transducer and activator of transcription 6; assay: PROTAC activity at STAT6/CRBN in human L-1236 cells assessed as reduction in STAT6 level at 10 uM incubated for 24 hrs by Western blot analysis; assay type: cell-based
Target sequence in this assay (P42226 2-847 limits assumed): as the sequence (P42226 2-847 limits assumed) above
Target sequence in this assay (Q96SW2 whole entry partner): as the sequence (Q96SW2 whole entry partner) above

[22] = Stability in mouse plasma assessed as parent compound remaining measured at 60 mins by LC-MS/MS analysis; assay type: ADME, cell-free; settings: read-out: Stability
[23] = target: T2, Protein cereblon/Signal transducer and activator of transcription 6; assay: PROTAC activity at STAT6/CRBN in human PBMC cells assessed as reduction in STAT6 level incubated for 18 hrs by Western blot analysis; assay type: cell-based
[24] = Stability in monkey plasma assessed as half life measured upto 60 mins by LC-MS/MS analysis; assay type: ADME, cell-free, Macaca mulatta; settings: rhesus monkey
[25] = Stability in dog plasma assessed as parent compound remaining measured at 120 mins by LC-MS/MS analysis; assay type: ADME, cell-free, Canis lupus familiaris; settings: read-out: Stability
PBMC [26] = assay: Downregulation of STAT5 level in human PBMC cells at 5 uM incubated for 18 hrs by Western blot analysis relative to control; assay type: functional, cell-based
PBMC [27] = assay: Downregulation of STAT2 level in human PBMC cells at 5 uM incubated for 18 hrs by Western blot analysis relative to control; assay type: functional, cell-based
[28] = Stability in rat plasma assessed as parent compound remaining measured at 30 mins by LC-MS/MS analysis; assay type: ADME, cell-free; settings: read-out: Stability
[29] = Metabolic stability in mouse liver microsome assessed as parent compound remaining measured at 5 mins in presence of NADPH by LC-MS/MS analysis; assay type: ADME; settings: liver microsomes, read-out: Stability
[30] = Stability in mouse plasma assessed as half life measured upto 60 mins by LC-MS/MS analysis; assay type: ADME, cell-free
[31] = target: Protein cereblon/Signal transducer and activator of transcription 5A/Signal transducer and activator of transcription 5B (Homo sapiens) (UniProt P42229+P51692+Q96SW2); assay: PROTAC activity at STAT5/CRBN in human MV4-11 cells assessed as reduction in STAT5 level at upto 10 uM incubated for 12 hrs by Western blot analysis; assay type: cell-based
Sequence of Protein cereblon/Signal transducer and activator of transcription 5A/Signal transducer and activator of transcription 5B (Homo sapiens) (P42229 whole entry, looked up): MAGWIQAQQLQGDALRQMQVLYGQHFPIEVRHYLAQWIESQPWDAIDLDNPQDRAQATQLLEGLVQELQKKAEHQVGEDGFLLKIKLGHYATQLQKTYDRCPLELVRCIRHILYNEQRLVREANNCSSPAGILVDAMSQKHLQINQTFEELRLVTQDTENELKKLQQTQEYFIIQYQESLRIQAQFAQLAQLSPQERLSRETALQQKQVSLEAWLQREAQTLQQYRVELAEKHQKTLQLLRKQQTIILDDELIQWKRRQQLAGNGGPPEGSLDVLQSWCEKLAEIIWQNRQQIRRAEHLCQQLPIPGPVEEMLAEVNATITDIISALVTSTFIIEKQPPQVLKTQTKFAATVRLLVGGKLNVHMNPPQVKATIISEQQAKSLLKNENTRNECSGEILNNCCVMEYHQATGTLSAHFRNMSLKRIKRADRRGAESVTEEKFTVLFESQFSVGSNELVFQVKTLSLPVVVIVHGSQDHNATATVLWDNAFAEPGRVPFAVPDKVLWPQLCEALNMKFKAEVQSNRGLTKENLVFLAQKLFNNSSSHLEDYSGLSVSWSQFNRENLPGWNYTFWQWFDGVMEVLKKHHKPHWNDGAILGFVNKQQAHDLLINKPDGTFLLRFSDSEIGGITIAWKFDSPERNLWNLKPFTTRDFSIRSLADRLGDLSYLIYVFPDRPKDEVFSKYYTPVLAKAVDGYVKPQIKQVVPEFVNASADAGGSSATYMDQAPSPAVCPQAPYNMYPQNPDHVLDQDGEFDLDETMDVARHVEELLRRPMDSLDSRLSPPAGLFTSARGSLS
Sequence of Protein cereblon/Signal transducer and activator of transcription 5A/Signal transducer and activator of transcription 5B (Homo sapiens) (P51692 whole entry, looked up): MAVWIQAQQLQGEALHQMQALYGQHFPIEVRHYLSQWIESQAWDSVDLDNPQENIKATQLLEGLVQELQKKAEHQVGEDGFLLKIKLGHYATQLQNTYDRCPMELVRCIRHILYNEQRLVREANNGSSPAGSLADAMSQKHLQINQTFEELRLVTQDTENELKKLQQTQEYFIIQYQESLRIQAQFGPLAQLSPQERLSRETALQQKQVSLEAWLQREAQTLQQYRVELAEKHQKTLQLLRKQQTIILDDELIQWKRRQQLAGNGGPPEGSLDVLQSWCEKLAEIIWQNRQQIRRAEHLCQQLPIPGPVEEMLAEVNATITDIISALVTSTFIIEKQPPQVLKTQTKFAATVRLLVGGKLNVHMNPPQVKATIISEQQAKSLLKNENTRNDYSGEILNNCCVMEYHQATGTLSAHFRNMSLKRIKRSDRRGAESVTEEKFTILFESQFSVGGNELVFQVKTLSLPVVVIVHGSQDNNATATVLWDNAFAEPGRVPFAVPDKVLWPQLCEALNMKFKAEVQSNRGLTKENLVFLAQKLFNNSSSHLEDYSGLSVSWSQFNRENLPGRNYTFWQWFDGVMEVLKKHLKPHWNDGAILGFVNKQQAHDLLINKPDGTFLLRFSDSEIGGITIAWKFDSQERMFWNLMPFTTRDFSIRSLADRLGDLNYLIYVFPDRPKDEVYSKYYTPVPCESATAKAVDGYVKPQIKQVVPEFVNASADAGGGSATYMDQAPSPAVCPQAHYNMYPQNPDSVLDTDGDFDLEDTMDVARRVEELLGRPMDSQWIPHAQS
Sequence of Protein cereblon/Signal transducer and activator of transcription 5A/Signal transducer and activator of transcription 5B (Homo sapiens) (Q96SW2 whole entry, looked up): as the sequence (Q96SW2 whole entry partner) above

CC(C)(C)[C@H](NC(=O)c1cc2cc(C(F)(F)P(=O)(O)O)ccc2s1)C(=O)N1C[C@@H](OCCCCCC#Cc2cccc3c2CN(C2CCC(=O)NC2=O)C3=O)C[C@H]1C(=O)N1CCO[C@H](c2ccccc2)C1 (stereo partly specified)
remaining at 0.5 h [1]: 96%
Activity [2]: > 90%
Activity [3]: > 70%
Activity [4]: No effect
Activity [5]: Active
remaining at 0.5 h [6]: 82%
remaining at 0.25 h [7]: 98%
remaining at 0.5 h [8]: 75%
Activity [9]: No effect
remaining at 0.25 h [10]: 97%
Activity [11]: No effect
remaining at 1 h [12]: 91%
remaining at 5 min [13]: 79%
remaining at 2 h [14]: 82%
remaining at 5 min [15]: 82%
remaining at 1 h [16]: 81%
remaining at 0.25 h [17]: 96%
Activity [18]: 79%
half-life [19]: > 2 h
half-life [20]: > 2 h
Activity [21]: No effect
remaining at 1 h [22]: 91%
DC50 [23]: 80 nM
half-life [24]: > 2 h
remaining at 2 h [25]: 67%
Activity (PBMC [26]): inactive
Activity (PBMC [27]): inactive
remaining at 0.5 h [28]: 85%
remaining at 5 min [29]: 98%
half-life [30]: > 2 h
Activity [31]: No effect

— ChEMBL document CHEMBL6103537 (J Med Chem, 2025)
